Experimental data published in the supplement of paper PMC4862054.
“And” between values parts separate entries of the source, which are not always exact repeats. Equal values may be shown once.

Assays:
Conditions in all cases: incubation time: 72 h
CAL-148 [1] = assay: normalised viability (% of control), CellTiter-Blue; higher = more viable cells (about 100 = DMSO control)
Outline: (§1)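 Seeded at 20 µl suspension per well onto compound-loaded 384-well plates, breast cancer cell lines were incubated 72 h. CellTiter-Blue fluorescence at 560/590 nm was then read, with each plate normalised to vehicle (100) and a positive kill control (0). Normalised viability is reported at a single listed concentration of the series.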

CAL-51 [2] = assay: as above
Outline: as §1

CAL-85-1 [3] = assay: as above
Outline: as §1

DU-4475 [4] = assay: as above
Outline: as §1

HDQ-P1 [5] = assay: as above
Outline: as §1

MDA-MB-453 [6] = assay: as above
Outline: as §1

BT-474 = assay: normalised response (% of control), CellTiter-Glo; higher = more viable cells (100 = DMSO, 0 = benzethonium chloride kill control)
Description: (§2)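 DSRT, 72 h incubation, CellTox Green / CellTiter-Glo readout. Signal is normalised to DMSO and benzethonium chloride controls. Value is the normalised response at the highest dose.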

CAL-85-1 [7] = assay: as above
Description: as §2

DU-4475 [8] = assay: as above
Description: as §2

HDQ-P1 [9] = assay: as above
Description: as §2

Hs578T = assay: as above
Description: as §2

MDA-MB-231 = assay: as above
Description: as §2

MDA-MB-436 = assay: as above
Description: as §2

MDA-MB-453 [10] = assay: as above
Description: as §2

CAL-148 [11] = assay: normalised viability (% of control), CellTiter-Blue; higher = more viable cells (about 100 = DMSO control); remark: listed apart in the source
Outline: as §1

CAL-51 [12] = assay: as above; remark: listed apart in the source
Outline: as §1

CAL-85-1 [13] = assay: as above; remark: listed apart in the source
Outline: as §1

HDQ-P1 [14] = assay: as above; remark: listed apart in the source
Outline: as §1

MDA-MB-453 [15] = assay: as above; remark: listed apart in the source
Outline: as §1

SMILES | normalised viability (CAL-148 [1]) [%] | normalised viability (CAL-51 [2]) [%] | normalised viability (CAL-85-1 [3]) [%] | normalised viability (DU-4475 [4]) [%] | normalised viability (HDQ-P1 [5]) [%] | normalised viability (MDA-MB-453 [6]) [%] | normalised response (BT-474) [%] | normalised response (CAL-85-1 [7]) [%] | normalised response (DU-4475 [8]) [%] | normalised response (HDQ-P1 [9]) [%] | normalised response (Hs578T) [%] | normalised response (MDA-MB-231) [%] | normalised response (MDA-MB-436) [%] | normalised response (MDA-MB-453 [10]) [%] | normalised viability (CAL-148 [11]) | normalised viability (CAL-51 [12]) | normalised viability (CAL-85-1 [13]) | normalised viability (HDQ-P1 [14]) [%] | normalised viability (MDA-MB-453 [15])
Cn1c(=O)c(F)c(Nc2ccc(I)cc2F)c2c(=O)n(C[C@@H](O)CO)cnc21 [TAK-733] (1000 nM) | 92.8 | 66 | 39.7 | 0.83 | 60 | 51.2 | 57.4 | 43.1 | 0.81 | 55.3 | 70.2 | 56.4 | 76.8 | 97.7 | – | – | – | – | –
C[C@@]1(C(=O)Nc2ccc(F)nc2)CCCN1c1nc(Nc2cc(C3CC3)n[nH]2)c2cccn2n1 (1000 nM) | – | – | – | – | – | – | – | – | – | – | – | – | – | – | 79.6% | 63.4% | 49.4% | 32.3 | 56.6%
CC(C)C[C@H](NC(=O)[C@H](Cc1ccccc1)NC(=O)c1cnccn1)B(O)O [Bortezomib] (1000 nM) | 0.38 | 1.02 | 2.28 | 0.03 | -1.16 | 11.1 | 1.31 | 0.44 | 6.46 | 0.65 | 0.04 | 0.08 | 1.47 | 11.5 | – | – | – | – | –
CS(=O)(=O)CCNCc1ccc(-c2ccc3ncnc(Nc4ccc(OCc5cccc(F)c5)c(Cl)c4)c3c2)o1 [Lapatinib] (1000 nM) | – | – | – | – | – | – | 96.8 | 73.5 | 106 | 69.5 | 101 | 105 | 103 | 80.5 | 82.4% and 94% | 105% and 94.6% | 66.4% and 66.5% | – | 38% and 36.7%
O=c1[nH]c(=O)n([C@H]2C[C@H](O)[C@@H](CO)O2)cc1F [Floxuridine] (1000 nM) | – | – | – | – | – | – | – | – | – | – | – | – | – | – | 50.6% | 31.9% | 53.1% | 86.5 | 81.9%
O=c1[nH]c(=O)n([C@H]2C[C@H](O)[C@@H](CO)O2)cc1F [Floxuridine] (10000 nM) | 31.9 | 15.5 | 39.3 | 56.2 | 93.9 | 32.2 | 59 | 23.6 | 70.7 | 82.8 | 23 | 67.9 | 57.3 | 97.6 | – | – | – | – | –
CS(=O)(=O)OCCCCOS(C)(=O)=O [Busulfan] (100000 nM) | 114 | 91.9 | 105 | 89 | 109 | 103 | 89.9 | 104 | 101 | 98.4 | 102 | 101 | 104 | 102 | – | – | – | – | –
COc1c(C)cnc(Cn2cnc3c(Cl)nc(N)nc32)c1C [BIIB021] (1000 nM) | – | – | – | – | – | – | – | – | – | – | – | – | – | – | 14.6% | 26.1% | 33.4% | 46.8 | 6.04%
Cn1c(=O)c(F)c(Nc2ccc(I)cc2F)c2c(=O)n(C[C@@H](O)CO)cnc21 [TAK-733] (100 nM) | – | – | – | – | – | – | – | – | – | – | – | – | – | – | 95% | 77.7% | 60.2% | 92 | 89.1%
COc1ncc(-c2ccc3nccc(-c4ccnnc4)c3c2)cc1NS(=O)(=O)c1ccc(F)cc1F (100 nM) | – | – | – | – | – | – | – | – | – | – | – | – | – | – | 25% | 17.2% | 30.5% | 22.3 | 7.68%
CC(C)(C)c1cc(NC(=O)Nc2ccc(-c3cn4c(n3)sc3cc(OCCN5CCOCC5)ccc34)cc2)no1 [Quizartinib] (100 nM) | – | – | – | – | – | – | – | – | – | – | – | – | – | – | 98.8% | 114% | 89.6% | 95 | 96.6%
COc1cccc2c1C(=O)c1c(O)c3c(c(O)c1C2=O)C[C@@](O)(C(C)=O)C[C@@H]3O[C@H]1C[C@H](N)[C@H](O)[C@H](C)O1 [Daunorubicin] (100 nM) | – | – | – | – | – | – | – | – | – | – | – | – | – | – | 30.8% | 38% | 77.2% | 94.9 | 94.8%
CC(C)C[C@H](NC(=O)[C@H](Cc1ccccc1)NC(=O)c1cnccn1)B(O)O [Bortezomib] (100 nM) | – | – | – | – | – | – | – | – | – | – | – | – | – | – | 18.2% | 2.63% | 5.3% | 1.22 | 19.4%
COC1=C2C[C@@H](C)C[C@H](OC)[C@H](O)[C@@H](C)/C=C(\C)[C@H](OC(N)=O)[C@@H](OC)/C=C\C=C(/C)C(=O)NC(=CC1=O)C2=O [Geldanamycin] (1000 nM) | – | – | – | – | – | – | – | – | – | – | – | – | – | – | 14.5% | 26.2% | 23.7% | 17.8 | 7.25%
C#Cc1cccc(Nc2ncnc3cc(OC)c(OCCCCCCC(=O)NO)cc23)c1 [CUDC-101] (1000 nM) | – | – | – | – | – | – | – | – | – | – | – | – | – | – | 47% | 97.7% | 24.9% | 50 | 19.1%
CN1CCN(c2ccc3nc(-c4c(N)c5c(F)cccc5[nH]c4=O)[nH]c3c2)CC1 [Dovitinib] (1000 nM) | – | – | – | – | – | – | – | – | – | – | – | – | – | – | 90.7% | 116% | 78.3% | 69.7 | 91.4%
